Measured values reported in patent publication US20140228366A1, “HETEROARYL-SUBSTITUTED PYRAZOLOPYRIDINES AND USE THEREOF AS SOLUBLE GUANYLATE CYCLASE STIMULATORS” (BAYER INTELLECTUAL PROPERTY GMBH, priority 2011, published 2014).

Tests used:
[1] = target: T1, recombinant guanylate cyclase reporter cell line (Rattus norvegicus, UniProt P19686+P20595); assay: Effect on a recombinant guanylate cyclase reporter cell line; assay type: cell-based
T1 construct: expressed in transfected cells; host or cells: recombinant reporter cell line
T1 sequence (P19686 1-690): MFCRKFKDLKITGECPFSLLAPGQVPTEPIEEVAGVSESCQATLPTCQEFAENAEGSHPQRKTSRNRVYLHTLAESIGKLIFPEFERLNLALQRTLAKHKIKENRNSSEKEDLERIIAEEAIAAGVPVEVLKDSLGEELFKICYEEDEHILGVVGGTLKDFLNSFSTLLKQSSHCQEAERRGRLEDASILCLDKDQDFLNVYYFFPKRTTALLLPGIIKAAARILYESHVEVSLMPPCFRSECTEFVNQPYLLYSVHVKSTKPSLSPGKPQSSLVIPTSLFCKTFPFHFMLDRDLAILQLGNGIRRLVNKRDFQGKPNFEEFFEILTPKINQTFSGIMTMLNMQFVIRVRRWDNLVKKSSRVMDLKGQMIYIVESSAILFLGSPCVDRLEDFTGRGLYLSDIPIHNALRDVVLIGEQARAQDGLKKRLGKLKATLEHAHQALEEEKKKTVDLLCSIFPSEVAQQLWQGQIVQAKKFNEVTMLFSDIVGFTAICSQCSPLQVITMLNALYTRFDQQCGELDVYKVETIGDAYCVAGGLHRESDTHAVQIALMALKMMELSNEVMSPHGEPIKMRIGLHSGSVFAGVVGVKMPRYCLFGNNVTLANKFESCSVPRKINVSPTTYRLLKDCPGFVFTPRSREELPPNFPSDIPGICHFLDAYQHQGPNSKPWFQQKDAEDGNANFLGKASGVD
T1 sequence (P20595 1-619): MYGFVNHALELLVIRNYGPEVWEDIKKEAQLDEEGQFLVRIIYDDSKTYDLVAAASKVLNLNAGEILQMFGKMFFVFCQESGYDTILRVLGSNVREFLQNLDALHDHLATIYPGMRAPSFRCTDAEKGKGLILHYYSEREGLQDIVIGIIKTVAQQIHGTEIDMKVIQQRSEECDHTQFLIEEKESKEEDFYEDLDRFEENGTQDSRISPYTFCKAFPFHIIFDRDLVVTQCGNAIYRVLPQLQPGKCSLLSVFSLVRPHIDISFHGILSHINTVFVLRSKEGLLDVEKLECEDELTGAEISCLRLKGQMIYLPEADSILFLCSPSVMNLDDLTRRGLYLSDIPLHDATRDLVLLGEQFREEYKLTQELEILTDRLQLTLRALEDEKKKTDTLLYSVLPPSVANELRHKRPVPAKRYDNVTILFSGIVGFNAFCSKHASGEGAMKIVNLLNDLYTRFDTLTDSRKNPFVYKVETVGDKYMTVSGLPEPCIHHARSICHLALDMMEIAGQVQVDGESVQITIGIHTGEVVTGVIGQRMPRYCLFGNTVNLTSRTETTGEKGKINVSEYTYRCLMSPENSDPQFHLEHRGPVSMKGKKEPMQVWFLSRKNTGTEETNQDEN
Procedure: The cellular activity of the compounds according to the invention is determined using a recombinant guanylate cyclase reporter cell line, as described in F. Wunder et al., Anal. Biochem. 339, 104-112 (2005).

rabbit aorta rings = assay: Vasorelaxant effect in vitro (phenylephrine-contracted aorta rings); conditions: Oryctolagus cuniculus, phenylephrine contraction, concentration reducing control contraction by 50%
Procedure: Rabbits are stunned by a blow to the neck and exsanguinated. The aorta is removed, freed from adhering tissue and divided into rings of a width of 1.5 mm. The rings are placed individually under an initial tension in 5 ml organ baths with Krebs-Henseleit solution which is at 37° C., is gassed with carbogen and has the following composition (in each case mM): sodium chloride: 119; potassium chloride: 4.8; calcium chloride dihydrate: 1; magnesium sulphate heptahydrate: 1.4; potassium dihydrogenphosphate: 1.2; sodium bicarbonate: 25; glucose: 10. The contractile force is determined with Statham UC2 cells, amplified and digitalized using A/D transducers (DAS-1802 HC, Keithley Instruments Munich), and recorded in parallel on linear recorders. To produce a contraction, phenylephrine is added to the bath cumulatively in increasing concentration. After several control cycles, the substance to be investigated is added in each further run in increasing dosage in each case, and the height of the contraction achieved is compared with the height of the contraction reached in the last preceding run. This is used to calculate the concentration needed to reduce the magnitude of the control value by 50% (IC50 value). The standard administration volume is 5 μl; the DMSO content in the bath solution corresponds to 0.1%.

| Structure (SMILES) | MEC (minimum effective concentration) [1] [µM] | IC50 (rabbit aorta rings) [nM] |
| --- | --- | --- |
| CC1(C)C(=O)Nc2nc(-c3nn(Cc4cncnc4)c4ncc(F)cc34)ncc21 [Example 18, 2-[5-Fluoro-1-(pyrimidin-5-ylmethyl)-1H-pyrazolo[3,4-b]pyridin-3-yl]-5,5-dimethyl-5,7-dihydro-6H-pyrrolo[2,3-d]pyrimidin-6-one] | 0.1 | 196 |
| CC1(C)C(=O)Nc2nc(-c3nn(Cc4c(F)cncc4F)c4ncc(F)cc34)nnc21 [Example 11, 3-{1-[(3,5-Difluoropyridin-4-yl)methyl]-5-fluoro-1H-pyrazolo[3,4-b]pyridin-3-yl}-7,7-dimethyl-5,7-dihydro-6H-pyrrolo[2,3-e][1,2,4]triazin-6-one] | 3.0 | 2540 |
| CC1(C)C(=O)Nc2nc(-c3nn(Cc4ncccc4F)c4ncc(F)cc34)nc(I)c21 [Example 4, 2-{5-Fluoro-1-[(3-fluoropyridin-2-yl)methyl]-1H-pyrazolo[3,4-b]pyridin-3-yl}-4-iodo-5,5-dimethyl-5,7-dihydro-6H-pyrrolo[2,3-d]pyrimidin-6-one] | 0.3 | – |
| CC1(C)C(=O)Nc2nc(-c3nn(Cc4cncnc4)c4ncc(F)cc34)nnc21 [Example 19, 3-[5-Fluoro-1-(pyrimidin-5-ylmethyl)-1H-pyrazolo[3,4-b]pyridin-3-yl]-7,7-dimethyl-5,7-dihydro-6H-pyrrolo[2,3-e][1,2,4]triazin-6-one] | 0.1 | 361 |
| CC1(C)C(=O)Nc2nc(-c3nn(Cc4ncccc4F)c4ncc(F)cc34)nc(O)c21 [Example 5, 2-{5-Fluoro-1-[(3-fluoropyridin-2-yl)methyl]-1H-pyrazolo[3,4-b]pyridin-3-yl}-4-hydroxy-5,5-dimethyl-5,7-dihydro-6H-pyrrolo[2,3-d]pyrimidin-6-one] | 3 | 627 |
| CC1(C)C(=O)Nc2nc(-c3nn(Cc4c(F)cncc4F)c4ncc(F)cc34)ncc21 [Example 10, 2-[1-[(3,5-Difluoropyridin-4-yl)methyl]-5-fluoro-1H-pyrazolo[3,4-b]pyridin-3-yl]-5,5-dimethyl-5,7-dihydro-6H-pyrrolo[2,3-d]pyrimidin-6-one] | 1.0 | 259 |
| CC1(C)C(=O)Nc2nc(-c3nn(Cc4sccc4F)c4ncc(F)cc34)nnc21 [Example 20, 3-{5-Fluoro-1-[(3-fluoro-2-thienyl)methyl]-1H-pyrazolo[3,4-b]pyridin-3-yl}-7,7-dimethyl-5,7-dihydro-6H-pyrrolo[2,3-e][1,2,4]triazin-6-one] | 0.01 | – |
| CC1(C)C(=O)Nc2nc(-c3nn(Cc4cncnc4)c4ncc(F)cc34)nc(N)c21 [Example 21, 4-Amino-2-[5-fluoro-1-(pyrimidin-5-ylmethyl)-1H-pyrazolo[3,4-b]pyridin-3-yl]-5,5-dimethyl-5,7-dihydro-6H-pyrrolo[2,3-d]pyrimidin-6-one] | 0.1 | 99 |
| CC1(C)C(=O)Nc2nc(-c3nn(Cc4ncc(F)cc4F)c4ncc(F)cc34)nnc21 [Example 16, 3-{1-[(3,5-Difluoropyridin-2-yl)methyl]-5-fluoro-1H-pyrazolo[3,4-b]pyridin-3-yl}-7,7-dimethyl-5,7-dihydro-6H-pyrrolo[2,3-e][1,2,4]triazin-6-one] | 1.0 | – |
| CC1(C)C(=O)Nc2nc(-c3nn(Cc4ccncc4F)c4ncc(F)cc34)ncc21 [Example 14, 2-{5-Fluoro-1-[(3-fluoropyridin-4-yl)methyl]-1H-pyrazolo[3,4-b]pyridin-3-yl}-5,5-dimethyl-5,7-dihydro-6H-pyrrolo[2,3-d]pyrimidin-6-one] | 1.0 | 207 |
| CC1(C)C(=O)Nc2nc(-c3nn(Cc4c(F)cncc4F)c4ncc(F)cc34)nc(O)c21 [Example 9, 2-{1-[(3,5-Difluoropyridin-4-yl)methyl]-5-fluoro-1H-pyrazolo[3,4-b]pyridin-3-yl}-4-hydroxy-5,5-dimethyl-5,7-dihydro-6H-pyrrolo[2,3-d]pyrimidin-6-one] | 3.0 | – |
| CC1(C)C(=O)Nc2nc(-c3nn(Cc4c(F)cncc4F)c4ncc(F)cc34)nc(N)c21 [Example 7, 4-Amino-2-{1-[(3,5-difluoropyridin-4-yl)methyl]-5-fluoro-1H-pyrazolo[3,4-b]pyridin-3-yl}-5,5-dimethyl-5,7-dihydro-6H-pyrrolo[2,3-d]pyrimidin-6-one] | 0.3 | 116 |
| CC1(C)C(=O)Nc2nc(-c3nn(Cc4ncccn4)c4ncc(F)cc34)nnc21 [Example 1, 3-[5-Fluoro-1-(pyrimidin-2-ylmethyl)-1H-pyrazolo[3,4-b]pyridin-3-yl]-7,7-dimethyl-5,7-dihydro-6H-pyrrolo[2,3-e][1,2,4]triazin-6-one] | 10 | 1320 |
| CC1(C)C(=O)Nc2nc(-c3nn(Cc4ccncc4F)c4ncc(F)cc34)nnc21 [Example 15, 3-{5-Fluoro-1-[(3-fluoropyridin-4-yl)methyl]-1H-pyrazolo[3,4-b]pyridin-3-yl}-7,7-dimethyl-5,7-dihydro-6H-pyrrolo[2,3-e][1,2,4]triazin-6-one] | 3.0 | 2230 |
| CC1(C)C(=O)Nc2nc(-c3nn(Cc4ccncc4F)c4ncc(F)cc34)nc(N)c21 [Example 12, 4-Amino-2-[5-fluoro-1-[(3-fluoropyridin-4-yl)methyl]-1H-pyrazolo[3,4-b]pyridin-3-yl]-5,5-dimethyl-5,7-dihydro-6H-pyrrolo[2,3-d]pyrimidin-6-one] | 1.0 | 121 |
